According to patent US7648974B1, “19-nor-vitamin D analogs with 3,2-dihydrofuran ring” (Wisconsin Alumni Research Foundation, priority 2008, dated 2010):
“Also recorded” adds a separate entry of the source.

Experiments:
[1] = system: Human promyelocytic leukemia (HL60) cells; assay: HL-60 differentiation (nitro blue tetrazolium reduction); assay type: cell-based; details: for EC50: Homo sapiens, HL-60, HL60 cells, FIG. 2
Method: Serial dilutions were prepared so that a range of drug concentrations could be tested without changing the final concentration of ethanol (≦0.2%) present in the cell cultures.
Human promyelocytic leukemia (HL60) cells were grown in RPMI-1640 medium containing 10% fetal bovine serum. The cells were incubated at 37° C. in the presence of 5% CO2.
HL60 cells were plated at 1.2×10^5 cells/ml. Eighteen hours after plating, cells in duplicate were treated with drug. Four days later, the cells were harvested and a nitro blue tetrazolium reduction assay was performed (Collins et al., 1979; J. Exp. Med. 149:969-974). The percentage of differentiated cells was determined by counting a total of 200 cells and recording the number that contained intracellular black-blue formazan deposits. Verification of differentiation to monocytic cells was determined by measuring phagocytic activity (data not shown).

[2] = system: 24-hydroxylase (24Ohase) gene promoter; assay: In vitro transcription assay, luciferase reporter in ROS 17/2.8 (bone) cells; assay type: cell-based; details: ROS 17/2.8 cells, 24-hydroxylase promoter luciferase; FIG. 3; read-out: EC50, transcriptional activity in bone cells
Method: In Vitro Transcription Assay
Transcription activity was measured in ROS 17/2.8 (bone) cells that were stably transfected with a 24-hydroxylase (24Ohase) gene promoter upstream of a luciferase reporter gene (Arbour et al., 1998). Cells were given a range of doses. Sixteen hours after dosing the cells were harvested and luciferase activities were measured using a luminometer.
RLU=relative luciferase units.

Sprague-Dawley rats [3] = assay: Bone calcium mobilization (serum calcium); assay type: in vivo; details: FIG. 4; for serum calcium value: 7,020 pmol/day for 4 consecutive days, ip, low calcium diet (0.02%)
Method: (§1) Intestinal Calcium Transport and Bone Calcium Mobilization
(§2) Male, weanling Sprague-Dawley rats were placed on Diet 11 (0.47% Ca) diet+AEK oil for one week followed by Diet 11 (0.02% Ca)+AEK oil for 3 weeks. The rats were then switched to a diet containing 0.47% Ca for one week followed by two weeks on a diet containing 0.02% Ca. Dose administration began during the last week on 0.02% calcium diet. Four consecutive ip doses were given approximately 24 hours apart. Twenty-four hours after the last dose, blood was collected from the severed neck and the concentration of serum calcium determined as a measure of bone calcium mobilization. The first 10 cm of the intestine was also collected for intestinal calcium transport analysis using the everted gut sac method.

Sprague-Dawley rats [4] = assay: Intestinal calcium transport (everted gut sac method); assay type: in vivo; details: FIG. 5
Method: as §1, §2

[5] = target: T1, full-length recombinant rat vitamin D receptor (Rattus norvegicus, UniProt P13053)
T1 sequence (P13053 1-423): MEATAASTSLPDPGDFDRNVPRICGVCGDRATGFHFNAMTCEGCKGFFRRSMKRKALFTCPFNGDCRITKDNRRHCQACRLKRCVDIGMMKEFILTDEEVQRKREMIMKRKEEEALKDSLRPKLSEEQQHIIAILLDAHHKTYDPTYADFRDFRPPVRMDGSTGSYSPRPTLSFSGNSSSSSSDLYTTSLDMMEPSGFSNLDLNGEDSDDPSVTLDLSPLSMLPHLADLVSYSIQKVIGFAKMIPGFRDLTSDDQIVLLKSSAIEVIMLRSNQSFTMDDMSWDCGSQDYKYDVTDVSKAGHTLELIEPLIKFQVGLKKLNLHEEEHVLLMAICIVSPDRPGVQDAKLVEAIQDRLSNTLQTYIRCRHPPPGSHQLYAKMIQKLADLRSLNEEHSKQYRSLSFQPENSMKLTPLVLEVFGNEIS
From the text: Vitamin D Receptor Binding
Full-length recombinant rat receptor was expressed in E. coli BL21 (DE3) Codon Plus RIL cells and purified to homogeneity using two different column chromatography systems. The first system was a nickel affinity resin that utilizes the C-terminal histidine tag on this protein. The protein that was eluted from this resin was further purified using ion exchange chromatography (S-Sepharose Fast Flow). Aliquots of the purified protein were quick frozen in liquid nitrogen and stored at −80° C. until use. For use in binding assays, the protein was diluted in TEDK50 (50 mM Tris, 1.5 mM EDTA, pH7.4, 5 mM DTT, 150 mM KCl) with 0.1% Chaps detergent.
Radiolabeled and unlabeled ligands were added to 100 mcl of the diluted protein at a final ethanol concentration of ≦10%, mixed and incubated overnight on ice to reach binding equilibrium. The following day, 100 mcl of hydroxylapatite slurry (50%) was added to each tube and mixed at 10-minute intervals for 30 minutes. The hydroxylapaptite was collected by centrifugation and then washed three times with Tris-EDTA buffer (50 mM Tris, 1.5 mM EDTA, pH 7.4) containing 0.5% Titron X-100. After the final wash, the pellets were transferred to scintillation vials containing 4 ml of Biosafe II scintillation cocktail, mixed and placed in a scintillation counter. Total binding was determined from the tubes containing only radiolabeled ligand.

Ki [5] [nM] | VDR affinity, less potent than 1,25-(OH)2D3 ([5]; relative to 1,25-(OH)2D3) [times] | VDR binding diminished as compared to 1α,25-dihydroxyvitamin D3 ([5]; relative to 1α,25-dihydroxyvitamin D3) [fold] | VDR binding affinity lower than the native hormone ([5]; relative to the native hormone) | Compound | EC50 [1] [nM] | EC50 [2] [nM] | serum calcium value (Sprague-Dawley rats [3]) [mg/dL] | bone calcium mobilization activity (in words) (Sprague-Dawley rats [3]; in vivo, doses tested) | HL-60 cell differentiation, less active/potent than 1,25(OH)2D3 ([1]; relative to 1,25(OH)2D3) | potency to promote HL60 cell differentiation, less than calcitriol ([1]; relative to calcitriol) [logs] | intestinal calcium transport activity (in words) (Sprague-Dawley rats [4]; 780 pmol/day for 4 consecutive days) | intestinal calcium transport activity in vivo (in words) (Sprague-Dawley rats [4]; in vivo, compared to 1,25-(OH)2D3)
 |  |  |  | C=C1/C(=C\C=C2/CCC[C@]3(C)[C@@H]([C@H](C)CCCC(C)(C)O)CC[C@@H]23)C[C@@H](O)C[C@@H]1O [1,25-(OH)2D3, 1α,25-dihydroxyvitamin D3, reference compound] | 3 | 0.2 | 7.9 | increased serum calcium levels at all the dosages tested |  |  |  | 
800 | ~40 | ~10 | approximately 4 orders of magnitude | C[C@H](CCCC(C)(C)O)C1CCC2/C(=C/C=C3\C[C@@H](O)C4=CCO[C@@H]4C3)CCC[C@@]21C (stereo partly drawn) [B-REV5, 3,2-dihydrofuran-1α,25-dihydroxy-19-nor-vitamin D3] | 1000 | 300 | 6.1 |  | about 1,000 times | 3 | almost the same activity as 1,25-(OH)2D3 | significant intestinal calcium transport activity; also recorded: about the same potency
